Patent publication US20220008500A1, “COMPOSITIONS AND METHODS FOR TREATING HEART FAILURE” (The George Washington University, priority 2017, published 2022)
Where “and” joins values, the source holds several entries; their conditions need not be identical. Equal entries are not always repeated.

Legend:
[1] = system: IL-1β; assay: Western blot of LV myocardium, IL-1β; type: in vivo, Sprague-Dawley rats; conditions: CNO 1 mg/kg IP daily
Experimental: (§1) TAC+OXT and OXT NORM animals received intraperitoneal (IP) injections of CNO (1 mg/kg) daily, beginning at 5 weeks of age until the animal was sacrificed.
(§2) Samples of LV myocardium (n=5-6/group) were flash frozen in liquid nitrogen and stored at −80° C. For western blot analysis of protein expression, samples were thawed and homogenized using the Qproteome Mammalian Protein Prep Kit (Qiagen) in tubes containing metallic beads. Samples were then centrifuged at 14,000 g for 20 minutes and protein concentrations were determined by the Pierce BCA Protein Assay (Thermo Scientific). Laemmli buffer (Bio Rad) with 10% 2-mercaptoethanol (Sigma-Aldrich) was added to the samples and samples were heated to 98° C. Equal protein concentration was loaded into wells containing 4-20% Mini-PROTEAN® TGX™ Gels (Bio Rad). The samples were then run at 100V for 1-1.5 hours to separate proteins by electrophoresis.
(§3) After electrophoresis, the samples were transferred to PVDF membranes for 10 min at 25V using the Trans-Blot® Turbo™ Transfer System (Bio Rad). The membranes were blocked with 5% milk for 18 hours. […] Band intensities for collagen III and IL-10 were measured using ImageJ and normalized to the corresponding band intensity for GAPDH.

[2] = system: collagen III; assay: Western blot of LV myocardium, collagen III; type: in vivo, Sprague-Dawley rats; conditions: CNO 1 mg/kg IP daily
Experimental: as §1, §2, §3

[3] = molecular target: T1, DREADDs in PVN OXT neurons (Homo sapiens, UniProt P20309, A239G/Y149C)
T1 sequence (P20309 whole entry Y149C/A239G): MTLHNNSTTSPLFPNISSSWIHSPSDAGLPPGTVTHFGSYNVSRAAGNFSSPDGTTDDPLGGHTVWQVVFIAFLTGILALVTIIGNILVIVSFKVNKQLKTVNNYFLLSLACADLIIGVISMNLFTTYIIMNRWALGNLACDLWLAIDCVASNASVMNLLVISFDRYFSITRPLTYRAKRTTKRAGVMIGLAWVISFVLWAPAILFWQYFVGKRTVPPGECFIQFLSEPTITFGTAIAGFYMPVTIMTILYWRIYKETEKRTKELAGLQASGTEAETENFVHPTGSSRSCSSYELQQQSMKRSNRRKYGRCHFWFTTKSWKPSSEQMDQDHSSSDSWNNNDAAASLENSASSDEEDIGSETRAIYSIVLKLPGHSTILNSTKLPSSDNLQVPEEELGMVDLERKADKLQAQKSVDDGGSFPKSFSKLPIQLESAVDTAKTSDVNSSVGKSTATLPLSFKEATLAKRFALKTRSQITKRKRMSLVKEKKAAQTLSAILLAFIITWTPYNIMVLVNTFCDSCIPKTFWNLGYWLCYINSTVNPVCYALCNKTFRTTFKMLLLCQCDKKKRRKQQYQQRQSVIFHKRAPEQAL
Experimental: (§4) In this system one viral vector expresses Cre recombinase under an OXT promotor. The second vector expresses the excitatory hM3Dq DREADDs22. This is a Cre-dependent vector that has silencing double-floxed inverse open reading frames, which insures expression is only in OXT neurons that selectively express Cre. In each animal, 30-50 nl containing both viral vectors was selectively microinjected into the PVN over a 20 minutes period at 1 week of age.
Sprague-Dawley rats at 4 weeks of age that had DREADDS expression in PVN oxytocin neurons were anesthetized (isoflurane) and implanted with a telemetry device (HDX-11, DSI) with the pressure catheter inserted into the descending abdominal aorta to measure blood pressure (BP). The ECG leads of the device were inserted subcutaneously to measure HR. Rats were allowed to recover from this surgery for a week, followed by IP saline injections for 3 days to acclimate the animals to IP injections. […] One injection of one of the three solutions was administered each day on consecutive days.

[4] = system: excised Langendorff perfused hearts; assay: Isoproterenol dose response in excised Langendorff perfused hearts (β-adrenergic stimulation); design: species or system Sprague-Dawley rats; conditions: for CFR at the highest isoproterenol concentration / Contractility at the highest isoproterenol concentration / RPP at the highest isoproterenol concentration / Relaxation at the highest isoproterenol concentration: isoproterenol 1000 nM
Experimental: (§5) At nine weeks of age rats were anesthetized with an IP injection of 0.2 mL Telazol and subject to isoflurane inhalation. Following cessation of pain reflexes, hearts were rapidly excised (n=26) and Langendorff perfused via the aorta at constant pressure (65 mmHg) and temperature (37° C.) with a Krebs-Henseleit solution containing (in mM) 115 NaCl, 3.3 KCl, 2.0 CaCl2, 1.4 MgSO4, 25.0 NaHCO3, 1.0 KH2PO4, 5.0 glucose, and 1.0 lactate. Perfusate was oxygenated with 95% 02-5% CO2. After a stabilization period of 10 minutes, a size 5 balloon (Harvard Apparatus) was inserted into the LV to measure isovolumic LV developed pressure (LVDP). Diastolic pressure was set to 10 mmHg and LVDP was computed as the difference between systolic and diastolic pressures. HR, LVDP, and coronary flow rate (CFR) were measured for at least 15 minutes during sinus rhythm. An isoproterenol (16504, Sigma Aldrich) dose response protocol was then administered using concentrations of 0.01, 0.1, 1, 10, 100, 1000 nM, and HR, LVDP, and CFR were measured at each concentration once function stabilized. After each study, rate pressure product (RPP), an indirect measure of LV work, was calculated as the product of HR and LVDP. Contractility and relaxation were measured as the maximum and minimum values of the first derivative of the LVP waveform, respectively, to assess inotropy and lusitropy.
Measurements in each group were compared using analysis of variance with Tukey post-hoc comparisons (Minitab 17 Statistical Software) to identify significant differences between groups. Myocyte area measurements were analyzed using fully nested ANOVA to account for both number of cells and number of animals. The isoproterenol dose response data was analyzed using a general linear model (GLM) to evaluate the group effect and the isoproterenol dose effect. Tukey post-hoc tests identified pairwise changes between groups at each isoproterenol concentration. Differences were considered significant if p<0.05.

[5] = system: PVN OXT neurons; assay: Firing of PVN OXT neurons after CNO injection; type: in vivo; conditions: DREADDs expressed in PVN OXT neurons
Source text: as §4, with “Additionally, selective activation of DREADDs in PVN OXT neurons decreases both mean arterial pressure and HR in telemetry instrumented conscious unrestrained animals. […] In this” for “In this”

[6] = molecular target: T1, DREADDs in PVN OXT neurons; assay: Anatomic measurements and histology of hearts after chronic activation of PVN OXT neurons; type: in vivo, Sprague-Dawley rats; design: expressed in transfected cells; host or cells: PVN oxytocin neurons of Sprague-Dawley rats, transduced in vivo with a Cre-dependent (double-floxed inverse ORF) viral vector plus an OXT-promoter Cre vector
Source text: (§6) Pressure overload induced LV hypertrophy was initiated in male Sprague-Dawley rats using a minimally invasive trans-ascending aortic constriction (TAC) procedure. Rats at one week of age were aestheticized by hypothermia and underwent TAC surgery. A 0.5 cm incision was made at the level of the chest, the chest was opened and the thymus was retracted to reveal the aorta. A 4-0 silk suture was passed around the ascending aorta, and with a 25-gauge needle temporarily placed adjacent to the aorta, the suture was tied around both the aorta and needle (TAC and TAC+OXT groups). The needle was then removed, leaving the constricting suture around the aorta. Buprenorphine was applied as an analgesic. Successful constriction was confirmed upon examination of the aorta after each animal was sacrificed.
as §4, with “Additionally, selective activation of DREADDs in PVN OXT neurons decreases both mean arterial pressure and HR in telemetry instrumented conscious unrestrained animals. […] In this” for “In this”
as §1
In a subset of animals, hearts were excised and cannulated via the aorta, flushed of blood, and weighed after clearing fluid from the chambers. The hearts were cut transversely, halfway between the apex and base, and the thickness of the LV free wall and septum were measured. The tissue was then preserved in 10% formalin for histology. Other hearts from each group were cannulated, flushed with high potassium solution, and then formalin-fixed via retrograde perfusion at constant pressure (60 mmHg). The hearts were cut longitudinally and preserved in 10% formalin for histology. All heart specimens were stained (H&E and Trichrome) to quantify cell size and collagen deposition. Average myocyte transverse cross-sectional (CS) area (μm^2) and the amount of fibrosis (μm^2) observed in a histological section were measured using ImageJ for at least three transverse slices from each heart.

[7] = molecular target: T1, DREADDs in PVN OXT neurons; assay: Ex vivo cardiac function of excised Langendorff perfused hearts during sinus rhythm; design: expressed in transfected cells; host or cells: PVN oxytocin neurons of Sprague-Dawley rats, transduced in vivo with a Cre-dependent (double-floxed inverse ORF) viral vector plus an OXT-promoter Cre vector; species or system Sprague-Dawley rats
Source text: as §6
as §4, with “Additionally, selective activation of DREADDs in PVN OXT neurons decreases both mean arterial pressure and HR in telemetry instrumented conscious unrestrained animals. […] In this” for “In this”
as §1, §5

[8] = system: myocardial ischemia-reperfusion; conditions: intra-cerebroventricular administration, rats with daily restraint stress; cited from earlier work
[9] = acute activation of PVN OXT neurons by CNO, n=4
[10] = awake rats with DREADDs in PVN OXT neurons, CNO 1 mg/kg IP, acute
[11] = hearts of TAC rats given CNO daily
[12] = TAC rats with DREADDs, CNO 1 mg/kg IP daily, 8 weeks post-TAC, listed as TAC + OXT
[13] = TAC rats with DREADDs, CNO 1 mg/kg IP daily, 8 weeks post-TAC, listed as TAC+OXT
[14] = rats without TAC (OXT NORM), CNO 1 mg/kg IP daily
[15] = hearts of TAC rats given CNO 1 mg/kg IP daily
[16] = hearts of rats without TAC (OXT NORM) given CNO daily

SMILES: C[N+]1([O-])CCN(C2=Nc3cc(Cl)ccc3Nc3ccccc32)CC1 [CNO, clozapine N-oxide]
- IL-1β expression (band intensity normalized to GAPDH) ([1]; TAC rats with DREADDs): 0.50±0.2 change from Control
- IL-1β expression (band intensity normalized to GAPDH) ([1]; rats without TAC (OXT NORM)): 0.21±0.14 change from Control
- Collagen III expression (band intensity normalized to GAPDH) ([2]; TAC rats with DREADDs): 1.95±0.7 times Control
- Collagen III expression (band intensity normalized to GAPDH) ([2]; rats without TAC (OXT NORM)): 1.31±0.5 change from Control
- Effect on BP (figure legend) [3, 9]: significantly reduced BP
- Effect on HR (figure legend) [3, 9]: significantly reduced HR
- Average reduction of HR [3, 10]: 56 bpm
- Average reduction of blood pressure [3, 10]: 13 mmHg
- Blood pressure after CNO ([3]; awake rats with DREADDs, CNO 1 mg/kg IP, before: 105.8±1.9 mmHg): 93.4±1.5 mmHg
- HR after CNO ([3]; awake rats with DREADDs, CNO 1 mg/kg IP, before: 475.4±15.9 bpm): 419±12.4 bpm
- HR response to increasing isoproterenol concentration ([4]; hearts of TAC rats given CNO daily, compared with Control and TAC hearts): greatest increase in HR
- CFR at the highest isoproterenol concentration [4, 11]: 15 ± 1.9 mL/min
- Contractility at the highest isoproterenol concentration [4, 11]: 3,936±589 mmHg/s
- RPP at the highest isoproterenol concentration [4, 11]: 38,017±4,303 mmHg*bpm
- Relaxation at the highest isoproterenol concentration [4, 11]: −3,258±495 mmHg/s
- Firing of PVN OXT neurons [5]: increases the firing of PVN OXT neurons for at least one hour
- Myocyte area (transverse cross-sectional area) ([6]; TAC rats with DREADDs, CNO 1 mg/kg IP daily from 5 weeks of age, 8 weeks post-TAC, listed as TAC + OXT): 584 ± 51^+ μm^2
- Myocyte area (transverse cross-sectional area) ([6]; TAC rats with DREADDs, CNO 1 mg/kg IP daily from 5 weeks of age, 8 weeks post-TAC, listed as TAC+OXT): 601±23 μm^2
- Body weight ([6]; TAC rats with DREADDs, CNO 1 mg/kg IP daily, 8 weeks post-TAC): 298 ± 17^ g
- Fibrosis [6, 12]: 2407 ± 723^+ μm^2
- Heart weight [6, 12]: 1.75 ± 0.21 g
- LV wall thickness (LV free wall) [6, 12]: 5.53 ± 0.34 mm
- Septum thickness [6, 12]: 3.99 ± 0.14 mm
- Fibrosis [6, 13]: 2407±723 μm^2
- Heart weight [6, 13]: 1.74 ± 0.2 g
- LV wall thickness (LV free wall) [6, 13]: 5.22±0.3 mm
- Septum thickness [6, 13]: 3.9±0.2 mm
- Myocyte area (transverse cross-sectional area) ([6]; rats without TAC (OXT NORM) with DREADDs, CNO 1 mg/kg IP daily): 368±20 μm^2 and 365 ± 90 μm^2
- Body weight [6, 14]: 357 ± 24 g
- Fibrosis [6, 14]: 918±112 μm^2
- Heart weight [6, 14]: 2.19 ± 0.2 g and 2.19 ± 0.17 g
- LV wall thickness (LV free wall) [6, 14]: 3.69±0.1 mm and 3.69 ± 0.10 mm
- Septum thickness [6, 14]: 3.18±0.1 mm and 3.18 ± 0.12 mm
- LV contractility (maximum of first derivative of LVP) [7, 15]: 3,124±383 mmHg/s
- LV developed pressure (LVDP) [7, 15]: 126±14 mmHg
- LV relaxation (minimum of first derivative of LVP) [7, 15]: −2,203±231 mmHg/s
- Rate pressure product (RPP) [7, 15]: 26,874±4,036 mmHg*bpm
- Coronary flow rate (CFR) ([7]; hearts of TAC rats given CNO 1 mg/kg IP daily, baseline (no isoproterenol), listed as TAC+OXT): 13.8 ± 2.9 mL/min and 14 ± 2.9 mL/min
- Coronary flow rate (CFR) [7, 16]: 16 ± 1.9 mL/min
- LV contractility (maximum of first derivative of LVP) [7, 16]: 4,631±931 mmHg/s
- LV developed pressure (LVDP) [7, 16]: 127±16 mmHg
- LV relaxation (minimum of first derivative of LVP) [7, 16]: −2,926±397 mmHg/s
- Rate pressure product (RPP) [7, 16]: 26,978±2,274 mmHg*bpm

SMILES: CC(C)NCC(O)c1ccc(O)c(O)c1 (stereo not shown) [isoproterenol]
- Contractility at the highest isoproterenol concentration ([4]; Control hearts): 7,164±788 mmHg/s
- RPP at the highest isoproterenol concentration ([4]; Control hearts): 52,741±14,328 mmHg*bpm
- Relaxation at the highest isoproterenol concentration ([4]; Control hearts): −5,402±484 mmHg/s
- CFR at the highest isoproterenol concentration ([4]; Control hearts, baseline 13.3±2.4 mL/min): 25.3 ± 3.7 mL/min
- CFR, average for all isoproterenol concentrations ([4]; untreated TAC hearts): 8.4 ± 0.8 mL/min
- Maximum contractility rate in the isoproterenol protocol ([4]; untreated TAC hearts): 2,322±364 mmHg/s
- Minimum relaxation rate in the isoproterenol protocol ([4]; untreated TAC hearts): −2,023±361 mmHg/s
- RPP at the highest isoproterenol concentration ([4]; untreated TAC hearts): 21,787±3998 mmHg*bpm

SMILES: CC[C@H](C)[C@@H]1NC(=O)[C@H](Cc2ccc(O)cc2)NC(=O)[C@@H](N)CSSC[C@@H](C(=O)N2CCC[C@H]2C(=O)N[C@@H](CC(C)C)C(=O)NCC(N)=O)NC(=O)[C@H](CC(N)=O)NC(=O)[C@H](CCC(N)=O)NC1=O [oxytocin]
- Cardiac injury following ischemia reperfusion [8]: reduced the cardiac injury
